Tested on: 287954-098-R-J1 tumor spheroid viability
Assay: Anticancer human tumor 287954-098-R-J1 patient-derived Ewing sarcoma cell line growth inhibition
Details: spheroids with HUVEC and MSC; for IC50: curve of first compound; for viability, T/C: stronger effect = lower value
Summary of the method: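 Single agents and combinations were tested on spheroids built from tumor cells plus HUVEC and hMSC, at half-log dilutions starting at or near clinical Cmax, else 10 microM; final DMSO 0.25% (v/v).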

[1] = second compound 0.003 µM, first compound 0.0316 µM
[2] = second compound 0.003 µM, first compound 0.1 µM
[3] = second compound 0.003 µM, first compound 0.316 µM
[4] = second compound 0.003 µM, first compound 1 µM
[5] = second compound 0.003 µM, first compound 3.16 µM
[6] = second compound 0.003 µM, first compound 10 µM
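Note: spheroids exposed to compound for 7 days before viability readout.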
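Throughout, for viability, T/C: luminescent signal taken as surrogate of viable cell content; 100% = DMSO vehicle control viability and lower means growth inhibition.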

CC(C)n1c(=O)n(C)c2cnc3cc(F)c(-c4ccc(OCCCN5CCCCC5)nc4)cc3c21 + COc1cc2c(cc1O)CCNC21CSC2c3c(OC(C)=O)c(C)c4c(c3C(COC1=O)N1C(O)C3Cc5cc(C)c(OC)c(O)c5C(C21)N3C)OCO4
IC50 (second compound 30 pM): 4530 nM
IC50 (second compound 94.9 pM): < 31.6 nM
IC50 (second compound 0.0003 µM): < 31.6 nM
IC50 (second compound 0.000949 µM): < 31.6 nM
IC50 (second compound 0.003 µM): < 31.6 nM
viability, T/C (second compound 30 pM, first compound 0.0316 µM): 44.4%
viability, T/C (second compound 30 pM, first compound 0.1 µM): 84.8%
viability, T/C (second compound 30 pM, first compound 0.316 µM): 62.4%
viability, T/C (second compound 30 pM, first compound 1 µM): 85.3%
viability, T/C (second compound 30 pM, first compound 3.16 µM): 81.3%
viability, T/C (second compound 30 pM, first compound 10 µM): 2.07%
viability, T/C (second compound 94.9 pM, first compound 0.0316 µM): 14.9%
viability, T/C (second compound 94.9 pM, first compound 0.1 µM): 14.4%
viability, T/C (second compound 94.9 pM, first compound 0.316 µM): 8.68%
viability, T/C (second compound 94.9 pM, first compound 1 µM): 14.2%
viability, T/C (second compound 94.9 pM, first compound 3.16 µM): 8.71%
viability, T/C (second compound 94.9 pM, first compound 10 µM): 0.47%
viability, T/C (second compound 0.0003 µM, first compound 0.0316 µM): 1.47%
viability, T/C (second compound 0.0003 µM, first compound 0.1 µM): 1.47%
viability, T/C (second compound 0.0003 µM, first compound 0.316 µM): 1.52%
viability, T/C (second compound 0.0003 µM, first compound 1 µM): 1.56%
viability, T/C (second compound 0.0003 µM, first compound 3.16 µM): 1.71%
viability, T/C (second compound 0.0003 µM, first compound 10 µM): 0.41%
viability, T/C (second compound 0.000949 µM, first compound 0.0316 µM): 0.31%
viability, T/C (second compound 0.000949 µM, first compound 0.1 µM): 0.27%
viability, T/C (second compound 0.000949 µM, first compound 0.316 µM): 0.36%
viability, T/C (second compound 0.000949 µM, first compound 1 µM): 0.6%
viability, T/C (second compound 0.000949 µM, first compound 3.16 µM): 0.33%
viability, T/C (second compound 0.000949 µM, first compound 10 µM): 0.36%
viability, T/C [1]: 0.18%
viability, T/C [2]: 0.2%
viability, T/C [3]: 0.18%
viability, T/C [4]: 0.23%
viability, T/C [5]: 0.25%
viability, T/C [6]: 0.4%

[2H]c1nc(C)nc([2H])c1-c1cc(NC[C@@H](C)c2cccc3c(C(=O)NC)ccnc23)ncn1 + CC[C@@]1(O)C(=O)OCc2c1cc1n(c2=O)Cc2cc3c(CN(C)C)c(O)ccc3nc2-1
IC50 (second compound 0.003 µM): > 10000 nM
IC50 (second compound 0.00949 µM): > 10000 nM
IC50 (second compound 0.03 µM): < 31.6 nM
IC50 (second compound 0.0949 µM): < 31.6 nM
IC50 (second compound 0.3 µM): < 31.6 nM
viability, T/C [1]: 101%
viability, T/C [2]: 109%
viability, T/C [3]: 111%
viability, T/C [4]: 107%
viability, T/C [5]: 96.2%
viability, T/C [6]: 105%
viability, T/C (second compound 0.00949 µM, first compound 0.0316 µM): 104%
viability, T/C (second compound 0.00949 µM, first compound 0.1 µM): 108%
viability, T/C (second compound 0.00949 µM, first compound 0.316 µM): 99.1%
viability, T/C (second compound 0.00949 µM, first compound 1 µM): 106%
viability, T/C (second compound 0.00949 µM, first compound 3.16 µM): 110%
viability, T/C (second compound 0.00949 µM, first compound 10 µM): 109%
viability, T/C (second compound 0.03 µM, first compound 0.0316 µM): 32%
viability, T/C (second compound 0.03 µM, first compound 0.1 µM): 31.6%
viability, T/C (second compound 0.03 µM, first compound 0.316 µM): 47.8%
viability, T/C (second compound 0.03 µM, first compound 1 µM): 10.1%
viability, T/C (second compound 0.03 µM, first compound 3.16 µM): 15.7%
viability, T/C (second compound 0.03 µM, first compound 10 µM): 4.42%
viability, T/C (second compound 0.0949 µM, first compound 0.0316 µM): 1.07%
viability, T/C (second compound 0.0949 µM, first compound 0.1 µM): 0.66%
viability, T/C (second compound 0.0949 µM, first compound 0.316 µM): 0.37%
viability, T/C (second compound 0.0949 µM, first compound 1 µM): 0.51%
viability, T/C (second compound 0.0949 µM, first compound 3.16 µM): 0.49%
viability, T/C (second compound 0.0949 µM, first compound 10 µM): 0.51%
viability, T/C (second compound 0.3 µM, first compound 0.0316 µM): 0.91%
viability, T/C (second compound 0.3 µM, first compound 0.1 µM): 0.5%
viability, T/C (second compound 0.3 µM, first compound 0.316 µM): 0.31%
viability, T/C (second compound 0.3 µM, first compound 1 µM): 0.64%
viability, T/C (second compound 0.3 µM, first compound 3.16 µM): 0.57%
viability, T/C (second compound 0.3 µM, first compound 10 µM): 0.57%
